Assay results: article PMC11694131 (Haematologica, 2024)
Read-outs that look alike come from different tables or passages of the source.

Key:
LOUCY = experiment: CellTiter-Glo viability, LOUCY; type: cell-based; conditions: read-out: IC50, CellTiter-Glo
RS4;11 = experiment: CellTiter-Glo viability, RS4; type: cell-based; conditions: for IC50: Homo sapiens, RS4-11, 24 h, read-out: IC50, CellTiter-Glo
PF-382 = experiment: CellTiter-Glo viability, PF-382; type: cell-based; conditions: read-out: IC50, CellTiter-Glo
CCRF-CEM = experiment: CellTiter-Glo viability, CCRF-CEM; type: cell-based
MOLT4 = experiment: CellTiter-Glo viability, MOLT4; type: cell-based; conditions: read-out: IC50, CellTiter-Glo
[1] = system: treatment-naïve primary CLL cells; experiment: TMRM / Annexin V apoptosis assay, treatment-naïve primary CLL cells; type: cell-based; conditions: Homo sapiens, CLL cell, 18 h, read-out: IC50, apoptosis (TMRM and Annexin V)
platelets = experiment: 14-day repeat-dose non-GLP platelet toxicity study in dogs; type: in vivo, dog; conditions: oral once daily
in vitro = conditions: human
[2] = system: venetoclax-relapsed primary CLL cells; experiment: TMRM / Annexin V apoptosis assay, venetoclax-relapsed primary CLL cells; type: cell-based; conditions: Homo sapiens, CLL cell, read-out: IC50, apoptosis (TMRM and Annexin V)
[3] = system: primary CLL cells co-cultured on HS-5 stromal cells; experiment: Primary CLL cells co-cultured on HS-5 stroma, Annexin V / TMRM; type: cell-based, human; conditions: HS-5 co-culture 24 hr
[4] = system: primary CLL cells cultured with or without NK Tert stroma; experiment: Primary CLL cells with or without NK Tert stroma, Annexin V / TMRM; type: cell-based; conditions: Homo sapiens, CLL cell
[5] = Single-dose dog PK and platelet toxicity study; type: in vivo; conditions: 25 mg/kg single oral dose
RS4;11 WT BCL2 xenograft = experiment: RS4; type: in vivo, mouse; conditions: 6.25 mg/kg orally once daily for 28 days
OSU-CLL xenograft = experiment: OSU-CLL xenograft; type: in vivo, mouse; conditions: 50 mg/kg daily oral gavage
[6] = system: RS4;11 cells with WT BCL2; experiment: TMRM / Annexin V staining, RS4; type: cell-based; conditions: Homo sapiens, RS4-11, 72 h, read-out: IC50, TMRM / Annexin V
[7] = system: OSU-CLL BCL2 knockout (KO) cells; experiment: CellTiter-Glo viability, OSU-CLL BCL2 KO; type: cell-based; conditions: 72 hr, above 200 nM
[8] = read-out: IC50, CLL cells co-cultured with NK Tert cells
[9] = read-out: IC50, CLL cells without stromal protection

SMILES	IC50 [1] [nM]	IC50 (in vitro) [µM]	IC50 (LOUCY; 24 h) [nM]	IC50 [2] [nM]	effect of HS-5 stroma on sensitivity of CLL cells [3]	IC50 [4, 8] [nM]	IC50 [4, 9] [nM]	IC50 (RS4;11) [nM]	maximum reduction in platelets [5] [%]	further results
Cc1c(-c2ccc(N3CCc4cccc(C(=O)Nc5nc6ccccc6s5)c4C3)nc2C(=O)O)cnn1CC12CC3CC(CC(C3)C1)C2 [A-1331852]	–	–	–	–	–	–	–	–	–	IC50 (LOUCY; LOUCY, 24 hr): 130 nM; IC50, CellTiter-Glo (RS4;11; RS4;11, 24 hr): not effective; IC50 (PF-382; PF-382, 24 hr): 46.6 nM; IC50 (CCRF-CEM; read-out: IC50, CellTiter-Glo, 24 hr): 13.9 nM; IC50 (MOLT4; MOLT4, 24 hr): 5.5 nM
CC1(C)CCC(c2ccc(Cl)cc2)=C(CN2CCN(c3ccc(C(=O)NS(=O)(=O)c4ccc(N[C@H](CCN5CCOCC5)CSc5ccccc5)c(S(=O)(=O)C(F)(F)F)c4)cc3)CC2)C1 [navitoclax]	10.1	0.17	47.4	4.13	does not alter the sensitivity	16	5.9	42.1	97	dose at which platelet toxicity was induced (platelets): > 3 mg/kg; IC50 (PF-382; Homo sapiens, PF-382, 24 h): 379 nM; IC50 (CCRF-CEM; Homo sapiens, 24 h, read-out: IC50, CellTiter-Glo): 492 nM; IC50 (MOLT4; Homo sapiens, MOLT-4, 24 h): 291 nM
CC1(C)CCC(CN2CCN(c3ccc(C(=O)NS(=O)(=O)c4ccc(NCC5CCOCC5)c([N+](=O)[O-])c4)c(Oc4cnc5[nH]ccc5c4)c3)CC2)=C(c2ccc(Cl)cc2)C1 [venetoclax]	3.8	25	125	16	does not alter the sensitivity	1.2	0.908	4.7	6	median survival (RS4;11 WT BCL2 xenograft): 59 days; tumor volume upon stopping treatment (RS4;11 WT BCL2 xenograft): relapsed and exhibited increased tumor growth; platelet counts throughout treatment (OSU-CLL xenograft): maintained similar platelet counts; survival compared to vehicle (OSU-CLL xenograft): significantly improved the survival; plasma persistence / clearance at 30 hr post treatment [5]: persisted in plasma; IC50 [6]: 3.58 nM; plateau of killing [7]: 50%
